From US20250099448A1, “HETEROCYCLIC COMPOUNDS” (Hoffmann-La Roche Inc., priority 2022, published 2025)

Target: T1, MAGL protein (Homo sapiens, UniProt Q99685)
T1 sequence (Q99685 1-303): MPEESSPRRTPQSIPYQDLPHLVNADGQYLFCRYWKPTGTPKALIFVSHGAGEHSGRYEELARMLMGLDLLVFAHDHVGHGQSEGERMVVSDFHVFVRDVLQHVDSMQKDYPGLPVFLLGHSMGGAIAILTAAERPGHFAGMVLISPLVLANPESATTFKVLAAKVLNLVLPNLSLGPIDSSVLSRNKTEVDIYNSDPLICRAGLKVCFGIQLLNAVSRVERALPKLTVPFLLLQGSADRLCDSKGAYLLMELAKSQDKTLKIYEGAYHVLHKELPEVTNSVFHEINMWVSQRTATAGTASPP
Test: 2-AG assay: MAGL inhibitory activity by hydrolysis of 2-arachidonoylglycerol to arachidonic acid, followed by mass spectrometry
Format: biochemical
Settings: 8 μM 2-arachidonoylglycerol, 15 min preincubation, 30 min reaction at RT, RapidFire MS readout
Method in brief: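 Activity was measured by RapidFire SPE–triple-quad MS as the ratio of arachidonic acid to d8-arachidonic acid after 2-AG hydrolysis (8 μM substrate, 30 min, RT, acetonitrile quench). Compounds, tested from 12.5 μM down to […], were first preincubated 15 min with MAGL in TRIS/EDTA/Tween-20 buffer containing 2.5% DMSO.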

Row | Structure (SMILES) | IC50
1 | O=C(N1CC2(CC(c3nc(C4CC4)n[nH]3)C2)C1)N1CC2(CC[C@H](Cc3ccc(S(=O)(=O)C(F)(F)F)cc3)C2)C1 [compound 667] | 0.09 nM
2 | N=S(=O)(c1cccc(CC2CC3(C2)CN(C(=O)N2CC4(CC(c5nc(C6CC(F)(F)C6)n[nH]5)C4)C2)C3)c1)C(F)(F)F (stereo not shown) [compound 668] | 9.75 nM
3 | N#Cc1cc(C(F)(F)F)ncc1C[C@@H]1CCC2(C1)CN(C(=O)N1CC3(CC(c4nnc(C5CC5)[nH]4)C3)C1)C2 [compound 669] | 0.65 nM
4 | O=C(N1CC(C23CC(c4ccc(F)cc4)(C2)C3)C1)N1CC2(CC(c3nc(C4(O)CC4)n[nH]3)C2)C1 [compound 674] | 8.08 nM
5 | N#Cc1ccc(CC2CC3(C2)CN(C(=O)N2CC4(CC(c5nc(C6CC(F)(F)C6)n[nH]5)C4)C2)C3)cc1C(F)(F)F [compound 677] | 13 nM
6 | O=C(N1CC2(CC(c3nnc(C4CC4)[nH]3)C2)C1)N1CC2(C1)CN(c1ncc(C(F)(F)F)cc1F)C2 [compound 678] | 33.9 nM
7 | CP(C)(=O)c1cc(F)cc(CC2CC3(C2)CN(C(=O)N2CC4(CC(c5nc(C6CC6)n[nH]5)C4)C2)C3)c1 [compound 680] | 1.71 nM
8 | O=C(N1CC2(CC(c3nnc(C4CC4)[nH]3)C2)C1)N1CC2(C1)CN(c1ccc(C(F)(F)F)cn1)C2 [compound 682] | 38.4 nM
9 | O=C(N1CC2(CC(Cc3ccc4[nH]ncc4n3)C2)C1)N1CC2(CC(c3nc(C4CC4)n[nH]3)C2)C1 [compound 684] | 4.33 nM
10 | CS(=O)(=O)c1cc(F)ccc1C12CC(C3CN(C(=O)N4CC5(CC(c6nc(C7CC7)n[nH]6)C5)C4)C3)(C1)C2 [compound 685] | 0.96 nM
11 | Cc1onc(C2CC2)c1CN1CC2(C1)CN(C(=O)N1CC3(CC(c4nc(C5CC5)n[nH]4)C3)C1)C2 [compound 686] | 14.2 nM
12 | N=S(=O)(c1ccc(CC2CC3(C2)CN(C(=O)N2CC4(CC(c5nc(C6CC(F)(F)C6)n[nH]5)C4)C2)C3)cc1)C(F)(F)F (stereo not shown) [compound 687] | 54.1 nM

The remaining lines, values ahead:

Row | IC50 | Structure (SMILES)
13 | 1 nM | CS(=O)(=O)c1cc(CC2CC3(C2)CN(C(=O)N2CC4(CC(c5nc(C6(O)CC6)n[nH]5)C4)C2)C3)cc(C(F)(F)F)c1 [compound 670]
14 | 5.55 nM | O=C(N1CC2(CC(Cn3cc(C(F)(F)F)cn3)C2)C1)N1CC2(CC(c3nc(C4(O)CC4)n[nH]3)C2)C1 [compound 671]
15 | 8.31 nM | O=C(N1CC2(CC(c3nc(C4CC4)n[nH]3)C2)C1)N1CC2(CN(Cc3cc(C(F)(F)F)no3)C2)C1 [compound 672]
16 | 2 nM | O=C(N1CC2(CC(Cn3ccc(C(F)(F)F)n3)C2)C1)N1CC2(CC(c3nc(C4(O)CC4)n[nH]3)C2)C1 [compound 673]
17 | 8.76 nM | O=C(N1CC2(CC(c3nc(C4CC4)n[nH]3)C2)C1)N1CC2(CN(Cc3cc(C(F)(F)F)sn3)C2)C1 [compound 675]
18 | 2.94 nM | O=C(N1CC2(CC(Cc3ncc(Cl)cc3F)C2)C1)N1CC2(CC(c3nc(C4(O)CC4)n[nH]3)C2)C1 [compound 676]
19 | 0.15 nM | O=C(N1CC2(CC(Cc3cc(C(F)(F)F)nn3CC(F)(F)F)C2)C1)N1CC2(CC(c3nc(C4CC4)n[nH]3)C2)C1 [compound 679]
20 | 7.41 nM | Cn1nc(CN2CC3(C2)CN(C(=O)N2CC4(CC(c5nc(C6CC6)n[nH]5)C4)C2)C3)cc1C(F)(F)F [compound 681]
21 | 0.21 nM | O=C(N1CC2(CC(Cc3nc(C(F)(F)F)no3)C2)C1)N1CC2(CC(c3nc(C4CC4)n[nH]3)C2)C1 [compound 683]
22 | 8.96 nM | Cn1ncc(CN2CC3(C2)CN(C(=O)N2CC4(CC(c5nc(C6CC6)n[nH]5)C4)C2)C3)c1C(F)(F)F [compound 688]
23 | 0.61 nM | O=C(N1CC2(CC(Cn3cc(CC(F)(F)F)cn3)C2)C1)N1CC2(CC(c3nc(C4CC4)n[nH]3)C2)C1 [compound 690]
24 | 0.16 nM | Cn1ncc(C(F)(F)F)c1CC1CC2(C1)CN(C(=O)N1CC3(CC(c4nc(C5CC5)n[nH]4)C3)C1)C2 [compound 691]
25 | 20.1 nM | O=C(N1CC2(CC(Cc3ccc4[nH]ncc4n3)C2)C1)N1CC2(CC(c3nc(C4(O)CC4)n[nH]3)C2)C1 [compound 692]
